Laboratory results taken from PubChem BioAssay (NCI).
Values joined by “and” are separate entries in the source; they are usually repeats but may differ in a detail not shown here. Identical values can stand only once.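 How tested: cells in 96-well plates exposed to compound for 48 hours at five concentrations. GI50 = concentration required for 50% inhibition of growth. TGI denotes the concentration required for complete inhibition of growth.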 Where a SMILES comes first, the peptide text is derived from it. [ ]: non-standard residue; d: D form. The star is where a group is joined. ξ: configuration not given here. X37 = O=C(OCc1ccccc1)[C@@H]1CCC[C@H]1N*; Fmoc = O=C(OCC1c2ccccc2-c2ccccc21)*; ξW = NC(Cc1c[nH]c2ccccc12)C(=O)O; ξF = NC(Cc1ccccc1)C(=O)O; Boc = CC(C)(C)OC(=O)*; ξK = NCCCCC(N)C(=O)O; ξT = CC(O)C(N)C(=O)O; OBn = c1ccc(CO*)cc1; Bn = c1ccc(C*)cc1; tBu = CC(C)(C)*

How the values were obtained:
Test in all cases: growth of human tumour cells (NCI), 48 h
SN12C renal = tested on: SN12C renal
SK-OV-3 ovarian = tested on: SK-OV-3 ovarian
NCI-H460 lung = tested on: NCI-H460 lung
LOX IMVI melanoma = tested on: LOX IMVI melanoma
SF-268 CNS = tested on: SF-268 CNS
BT-549 breast = tested on: BT-549 breast
OVCAR-5 ovarian = tested on: OVCAR-5 ovarian
T-47D breast = tested on: T-47D breast
SF-295 CNS = tested on: SF-295 CNS
OVCAR-8 ovarian = tested on: OVCAR-8 ovarian

Compound	GI50 (SN12C renal)	TGI (SN12C renal)	GI50 (SK-OV-3 ovarian)	TGI (SK-OV-3 ovarian)	GI50 (NCI-H460 lung)	TGI (NCI-H460 lung)	GI50 (LOX IMVI melanoma)	TGI (LOX IMVI melanoma)	GI50 (SF-268 CNS)	TGI (SF-268 CNS)	GI50 (BT-549 breast)	TGI (BT-549 breast)	GI50 (OVCAR-5 ovarian)	TGI (OVCAR-5 ovarian)	GI50 (T-47D breast)	TGI (T-47D breast)	GI50 (SF-295 CNS)	TGI (SF-295 CNS)	TGI (OVCAR-8 ovarian)
CC(=O)OCC1OC(n2c(-c3ccccc3)c(N=Nc3ccc(Cl)cc3)c(C)c(C#N)c2=S)C(OC(C)=O)C(OC(C)=O)C1OC(C)=O (stereo not given)	12.2 µM and > 100 µM	> 100 µM	8.42 µM and 27.3 µM	> 100 µM and 76.5 µM	5.26 µM and 51.2 µM	> 100 µM	11.2 µM and > 100 µM	43.3 µM and > 100 µM	14.7 µM and 39.3 µM	> 100 µM	5.4 µM and 17.9 µM	20.1 µM and 58.8 µM	15.7 µM and > 100 µM	30.6 µM and > 100 µM	6.86 µM and 27.2 µM	47.3 µM and > 100 µM	25.2 µM and 56.7 µM	> 100 µM	–
CCOC(=O)Cc1csc(/N=C\c2c(O)c3ccccc3oc2=O)n1	–	–	–	> 100 µM	–	> 100 µM	–	> 100 µM	–	> 100 µM	–	–	–	> 100 µM	–	–	–	68.2 µM	> 100 µM
CC(C)(C)NCC(O)COc1cccc2[nH]c(C#N)cc12 (stereo not given)	–	> 100 µM	–	> 100 µM	–	–	–	–	–	> 100 µM	–	> 100 µM	–	> 100 µM	–	> 100 µM	–	> 100 µM	> 100 µM
COC(=O)C1Cc2c([nH]c3ccccc23)-c2[nH]c3ccccc3c2CC(NC(C)=O)C(=O)NCC(=O)N1 (stereo not given)	–	> 100 µM	–	> 100 µM	–	> 100 µM	–	> 100 µM	–	> 100 µM	–	–	–	> 100 µM	–	> 100 µM	–	> 100 µM	> 100 µM
COc1ccc2cc(C(=O)NCCc3ccccc3)ccc2c1OC	–	> 100 µM	–	> 100 µM	–	> 100 µM	–	> 100 µM	–	> 100 µM	–	–	–	> 100 µM	–	> 100 µM	–	> 100 µM	> 100 µM
CC1(C)OC1CC/C(=C/CBr)CBr (stereo not given)	–	29.1 µM	–	48.5 µM	–	29 µM	–	22.3 µM	–	29 µM	–	30.4 µM	–	31.5 µM	–	–	–	27.6 µM	–
CC(OC(C)(C)C)C(NC(=O)C(CCCCNC(=O)OC(C)(C)C)NC(=O)C(Cc1c[nH]c2ccccc12)NC(=O)C(Cc1ccccc1)NC(=O)OCC1c2ccccc2-c2ccccc21)C(=O)NC(Cc1ccccc1)C(=O)N[C@@H]1CCC[C@H]1C(=O)OCc1ccccc1 (stereo not given in full) (Fmoc-[ξF][ξW][ξK](Boc)[ξT](tBu)[ξF]-X37)	–	> 100 µM	–	> 100 µM	–	> 100 µM	–	> 100 µM	–	> 100 µM	–	–	–	> 100 µM	–	> 100 µM	–	> 100 µM	> 100 µM
CC(C)CC(NC(=O)C(Cc1ccccc1)NC(=O)C(COCc1ccccc1)NC(=O)OC(C)(C)C)C(=O)OCc1ccccc1 (stereo not drawn) (Boc-Ser(Bn)-Phe-Leu-OBn; configuration not given here)	–	63.9 µM	–	> 100 µM	–	26.4 µM	–	40.1 µM	–	43 µM	–	–	–	> 100 µM	–	> 100 µM	–	51.1 µM	34.6 µM
NC12c3c4cccc3Oc3cccc(c31)Oc1cccc(c12)O4	–	> 50 µM	–	> 50 µM	–	> 50 µM	–	–	–	> 50 µM	–	> 50 µM	–	> 50 µM	–	> 50 µM	–	> 50 µM	> 50 µM
CC(=O)OC1COC(N2C(=O)C(=O)c3cc(Br)c([N+](=O)[O-])cc32)C(OC(C)=O)C1OC(C)=O (stereo not given)	–	> 100 µM	–	> 100 µM	–	> 100 µM	–	99 µM	–	> 100 µM	–	–	–	> 100 µM	–	–	–	> 100 µM	> 100 µM
COC(=O)c1ccc(/C=C/C2=CC(=O)C=CC2=O)cc1	–	58 µM	–	–	–	> 64.6 µM	–	23.2 µM	–	42.9 µM	–	26.6 µM	–	46 µM	–	33.5 µM	–	78.2 µM	61.5 µM
CCC(C#N)N(Cc1cccc(CN(C(C)=O)C(C#N)CC)c1)C(C)=O (stereo not given)	–	> 100 µM	–	> 100 µM	–	–	–	> 100 µM	–	> 100 µM	–	> 100 µM	–	> 100 µM	–	> 100 µM	–	> 100 µM	> 100 µM
Cc1cccc(Nc2cn(CCOc3ccccc3)c(=O)[nH]c2=O)c1	–	81.7 µM	–	–	–	> 100 µM	–	94 µM	–	> 100 µM	–	–	–	> 100 µM	–	–	–	> 100 µM	–
COc1ccc(NS(=O)C2CCCCC2)cc1 (stereo not given)	–	> 100 µM	–	–	–	> 100 µM	–	> 100 µM	–	> 100 µM	–	–	–	> 100 µM	–	–	–	> 100 µM	> 100 µM
N#Cc1nn(-c2ccc(Cl)cc2)c(N)c2c(=N)n3nc(-c4ccccc4)cc3nc12	–	> 100 µM	–	29.3 µM	–	> 92.3 µM	–	> 37.9 µM	–	–	–	–	–	–	–	–	–	> 24.5 µM	> 100 µM
CC(=O)c1ccc2c(c1)CC1(C2)Cc2cc3c(cc2C1)C(=O)CC3 (stereo not given)	–	> 100 µM	–	> 66.1 µM	–	12.2 µM	–	28.8 µM	–	> 100 µM	–	–	–	> 100 µM	–	69.3 µM	–	13 µM	19.5 µM
